Where two headings read alike, the source gives them in different places. Starred links: 1 amine or outer side, 2 acyl side, 3 side chain; linkers in the order of their positions; H or OH if unused. Non-standard residues stand in square brackets, D forms with d. Groups on a side chain read outwards from the residue. *: point of attachment. C20 diacid = O=C(O)CCCCCCCCCCCCCCCCCCC(=O)*; C18 diacid = O=C(O)CCCCCCCCCCCCCCCCC(=O)*; Phe(4-CN) = N#Cc1ccc(C[C@H](N)C(=O)O)cc1; αMePhe(2-F) = C[C@](N)(Cc1ccccc1F)C(=O)O; γGlu = O=C(O)[C@H](CCC(=O)[*:2])N[*:1]; αMe4Pal = C[C@](N)(Cc1ccncc1)C(=O)O; αMeY = C[C@](N)(Cc1ccc(O)cc1)C(=O)O; αMeF = C[C@](N)(Cc1ccccc1)C(=O)O; 4Pal = N[C@@H](Cc1ccncc1)C(=O)O; αMeL = CC(C)C[C@](C)(N)C(=O)O; αMeS = C[C@](N)(CO)C(=O)O; Orn = NCCC[C@H](N)C(=O)O; AEEA = NCCOCCOCC(=O)O; Aib = CC(C)(N)C(=O)O
Tests used:
Assay type in all cases: cell-based
hGIPR [1] = target: T1, hGIPR (Homo sapiens, UniProt P48546); test: Functional cAMP activity in the presence of 1% HSA; settings: read-out: cAMP Rel EC50, hGIPR
T1 sequence (P48546 22-466): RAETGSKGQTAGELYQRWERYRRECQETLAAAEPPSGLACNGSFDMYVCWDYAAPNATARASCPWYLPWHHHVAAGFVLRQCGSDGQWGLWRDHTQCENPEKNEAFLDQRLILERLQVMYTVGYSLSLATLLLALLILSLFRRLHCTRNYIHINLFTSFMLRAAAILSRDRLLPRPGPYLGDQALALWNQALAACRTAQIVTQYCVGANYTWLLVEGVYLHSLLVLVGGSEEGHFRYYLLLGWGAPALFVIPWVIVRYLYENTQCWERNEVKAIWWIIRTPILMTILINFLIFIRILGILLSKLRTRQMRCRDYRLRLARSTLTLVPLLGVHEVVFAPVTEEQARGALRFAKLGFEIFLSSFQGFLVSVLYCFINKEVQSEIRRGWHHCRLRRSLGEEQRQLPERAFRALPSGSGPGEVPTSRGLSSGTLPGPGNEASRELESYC

hGLP-1R [2] = target: T2, hGLP-1R (Homo sapiens, UniProt P43220); test: Functional cAMP activity in the presence of 1% HSA; settings: read-out: cAMP Rel EC50, hGLP-1R
human GcgR = human GcgR (Homo sapiens, UniProt P47871); test: Functional cAMP activity in the presence of 1% HSA; settings: read-out: cAMP Rel EC50, hGcgR
hGIPR [3] = target: T1, hGIPR; test: Functional cAMP activation in the presence of 0.1% casein (no HSA); settings: read-out: Relative cAMP EC50, hGIPR;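 as to Relative cAMP EC50, hGIPR: intracellular cAMP rise after 30 min at 37 °C read by HTRF against a standard curve, scaled between buffer alone (0%) and top control ligand concentration (100%), four-parameter fit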;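 as to Relative cAMP EC50, hGLP-1R: intracellular cAMP rise after 30 min at 37 °C read by HTRF, normalized between buffer only (0%) and maximal control ligand (100%), four-parameter variable-slope fit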;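 as to Relative cAMP EC50, hGcgR: intracellular cAMP rise after 30 min at 37 °C, read by HTRF against a cAMP standard curve, scaled from buffer only (0%) to maximal control ligand response (100%)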
hGLP-1R [4] = target: T2, hGLP-1R; test: as above; settings: read-out: Relative cAMP EC50, hGLP-1R
hGcgR = hGcgR (Homo sapiens, UniProt P47871); test: as above; settings: read-out: Relative cAMP EC50, hGcgR;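 also: intracellular cAMP rise after 30 min at 37 °C, read by HTRF against a cAMP standard curve, scaled from buffer only (0%) to maximal control ligand response (100%)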
[5] = in the presence of 0.1% casein (no HSA), geometric mean

hGcgR, sequence (P47871 26-477): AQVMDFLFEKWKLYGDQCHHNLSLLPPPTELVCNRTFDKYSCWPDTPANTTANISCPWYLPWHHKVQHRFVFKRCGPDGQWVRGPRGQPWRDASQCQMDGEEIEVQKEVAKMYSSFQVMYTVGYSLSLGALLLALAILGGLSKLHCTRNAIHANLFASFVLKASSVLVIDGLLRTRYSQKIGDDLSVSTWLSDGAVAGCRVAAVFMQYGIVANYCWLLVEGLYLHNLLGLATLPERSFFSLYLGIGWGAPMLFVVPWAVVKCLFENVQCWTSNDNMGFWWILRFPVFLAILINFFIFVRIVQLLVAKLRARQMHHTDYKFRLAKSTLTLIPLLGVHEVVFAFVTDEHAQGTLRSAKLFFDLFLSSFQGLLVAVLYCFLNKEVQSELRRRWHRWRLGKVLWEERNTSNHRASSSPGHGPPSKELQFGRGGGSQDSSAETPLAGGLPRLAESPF
human GcgR, sequence (P47871 26-477): as above
T2 sequence (P43220 24-463): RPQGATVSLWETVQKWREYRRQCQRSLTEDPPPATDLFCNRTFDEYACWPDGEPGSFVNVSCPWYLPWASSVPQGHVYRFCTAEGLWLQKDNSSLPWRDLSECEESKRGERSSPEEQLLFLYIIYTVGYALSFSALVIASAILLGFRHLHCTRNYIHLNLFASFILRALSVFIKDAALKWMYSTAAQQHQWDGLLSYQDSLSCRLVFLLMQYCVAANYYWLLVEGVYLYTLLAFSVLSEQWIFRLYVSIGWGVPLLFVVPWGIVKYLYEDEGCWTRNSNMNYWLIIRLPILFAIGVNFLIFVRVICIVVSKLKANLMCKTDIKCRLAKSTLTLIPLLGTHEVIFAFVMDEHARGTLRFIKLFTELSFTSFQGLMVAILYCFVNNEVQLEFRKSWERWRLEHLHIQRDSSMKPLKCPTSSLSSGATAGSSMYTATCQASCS

Substance | EC50 (hGIPR [1]) [nM] | EC50 (hGLP-1R [2]) [nM] | EC50 (human GcgR) [nM] | EC50 (hGIPR [3]; [5]) [nM] | EC50 (hGLP-1R [4]; [5]) [nM] | EC50 (hGcgR; [5]) [nM] | EC50 (hGIPR [3]) [nM] | EC50 (hGLP-1R [4]) [nM] | EC50 (hGcgR) [nM]
H-Y[Aib]QGTFTSD[4Pal][αMeS]Q[αMeL]LD[Orn]K([dE-γGlu-C18 diacid])AQ[αMe4Pal]QFIQ[αMeY]LIE[Aib]GPSSGAPPPSGGGE-NH2 [Example 1186] | 3.17 | 52.1 | 164 | 0.0404 | 0.594 | 1.46 |  |  | 
H-Y[Aib]QGTFTSD[4Pal][αMeS]Q[αMeL]LD[Orn]K([dE-γGlu-C18 diacid])AQ[αMe4Pal]QFIQ[αMeY]LIE[Aib]GPSSGEPPPSGGGE-NH2 [Example 1183] | 3.16 | 53.6 | 127 | 0.0484 | 0.769 | 1.38 |  |  | 
H-Y[Aib]QGTFTSD[4Pal][αMeS]Q[αMeL]LD[Orn]K([dE-γGlu-C18 diacid])AQ[αMe4Pal]QFIQ[αMeY]LLE[Aib]GPSSGAPPPSGGGE-NH2 [Example 1138] | 3.4 | 164 | 72.8 | 0.0491 | 1.93 | 1.01 |  |  | 
H-Y[Aib]QGTFTSD[Phe(4-CN)]S[Orn][αMeL]LDKK([AEEA-AEEA-γGlu-C18 diacid])AQ[Aib]AFIEYLLE[Aib]GPSSGAPPPSGS-NH2 [Example 178] | 47.3 | 397 | 816 | 0.34 | 4.01 | 7.29 |  |  | 
H-Y[Aib]QGTFTSD[Phe(4-CN)]S[Orn][αMeL]LDKK([AEEA-γGlu-C18 diacid])AQ[Aib]AFIEYLLE[Aib]GHSSGAPPPSGS-NH2 [Example 190] | 59.4 | 172 | 331 | 0.306 | 1.41 | 2.95 |  |  | 
H-Y[Aib]QGTFTSD[Phe(4-CN)]S[Orn][αMeL]LDKK([AEEA-γGlu-C18 diacid])AQ[Aib]AFIEYLLE[Aib]GPSSGAPPPSGS-NH2 [Example 191] | 47.4 | 230 | 344 | 0.422 | 2.48 | 2.11 |  |  | 
H-Y[Aib]QGT[αMeF]TSD[4Pal][αMeS]I[αMeL]LD[Orn]K([AEEA-γGlu-C18 diacid])AQ[αMe4Pal]EFI[dE][αMeY]LIEGGPSSGAPPPSGE-NH2 [Example 1164] | 1.17 | 63.5 | 359 | 0.0104 | 0.495 | 2.83 |  |  | 
H-Y[Aib]QGT[αMeF]TSD[4Pal][αMeS]I[αMeL]LD[Orn]K([AEEA-γGlu-C18 diacid])AQ[αMe4Pal]EFI[dE][αMeY]LIEGGPSSGAPPPSGSE-NH2 [Example 1166] | 1.1 | 65.6 | 427 | 0.00999 | 0.478 | 2.94 |  |  | 
H-Y[Aib]QGT[αMeF]TSD[4Pal][αMeS]I[αMeL]LD[Orn]K([AEEA-γGlu-C18 diacid])AQ[αMe4Pal]EFI[dE][αMeY]LIEGGPSSGEPPPSGSE-NH2 [Example 1167] | 1.22 | 89.2 | 274 | 0.011 | 0.636 | 2.16 |  |  | 
H-Y[Aib]QGT[αMeF]TSD[4Pal][αMeS]I[αMeL]LD[Orn]K([γGlu-γGlu-C18 diacid])AQ[αMe4Pal]EFI[dE][αMeY]LIEGGPSSGAPPPSGE-NH2 [Example 1170] | 0.663 | 50.2 | 249 | 0.00783 | 0.395 | 2.43 |  |  | 
H-Y[Aib]QGT[αMeF]TSD[4Pal][αMeS]I[αMeL]LD[Orn]K([γGlu-γGlu-C18 diacid])AQ[αMe4Pal]EFI[dE][αMeY]LIEGGPSSGAPPPSGSE-NH2 [Example 1172] | 0.7 | 45.5 | 303 | 0.00886 | 0.44 | 2.52 |  |  | 
H-Y[Aib]QGT[αMeF]TSD[4Pal][αMeS]I[αMeL]LD[Orn]K([γGlu-γGlu-C18 diacid])AQ[αMe4Pal]EFI[dE][αMeY]LIEGGPSSGEPPPSGE-NH2 [Example 1171] | 0.718 | 52.9 | 233 | 0.00953 | 0.529 | 2.19 |  |  | 
H-Y[Aib]QGT[αMeF]TSD[4Pal][αMeS]I[αMeL]LD[Orn]K([γGlu-γGlu-C18 diacid])AQ[αMe4Pal]EFI[dE][αMeY]LIEGGPSSGEPPPSGGGE-NH2 [Example 1175] | 0.768 | 60.7 | 282 | 0.00962 | 0.572 | 2.08 |  |  | 
H-Y[Aib]QGT[αMeF]TSD[4Pal][αMeS]I[αMeL]LD[Orn]K([γGlu-γGlu-C18 diacid])AQ[αMe4Pal]EFI[dE][αMeY]LIEGGPSSGEPPPSGSE-NH2 [Example 1173] | 0.764 | 59.1 | 254 | 0.00943 | 0.604 | 2.31 |  |  | 
H-Y[Aib]QGT[αMePhe(2-F)]TSDFSILLDKQAQK([AEEA-AEEA-γGlu-C20 diacid])AFIEYLLEGGPSSGEPPPSEG-NH2 [Example 346] | 28.3 | 514 | 4310 | 0.0738 | 1.17 | 15.6 |  |  | 
H-Y[Aib]QGT[αMePhe(2-F)]TSDYSILLDKAAQK([AEEA-γGlu-C20 diacid])[Orn]FIEYLIEGGPSSGEPPPSEG-NH2 [Example 306] | 95.3 | 126 | 2820 | 0.142 | 0.335 | 5.8 |  |  | 
H-Y[Aib]QGT[αMePhe(2-F)]TSDYSILLDKK([AEEA-γGlu-C18 diacid])AQ[Aib]AFIEFLEEGGPSSGAPPPSEG-NH2 [Example 412] | 12.5 | 46 | 467 |  |  |  | 0.0351 | 0.282 | 2.36
H-Y[Aib]QGT[αMePhe(2-F)]TSDYSILLDKK([AEEA-γGlu-C18 diacid])AQ[Aib]AFIEYLEEGGPSSGAPPPEEG-NH2 [Example 399] | 19.6 | 42.8 | 560 |  |  |  | 0.0413 | 0.302 | 1.51
H-Y[Aib]QGT[αMePhe(2-F)]TSDYSILLDKK([AEEA-γGlu-C18 diacid])AQ[Aib]AFIE[4Pal]LEEGGPSSGAPPPSEG-NH2 [Example 411] | 23.8 | 82.1 | 1170 |  |  |  | 0.058 | 0.709 | 3.94
H-Y[Aib]QGT[αMePhe(2-F)]TSDYSILLDKK([γGlu-γGlu-C18 diacid])AQ[Aib]AFIEYLEEGGPSSGAPPPEEG-NH2 [Example 471] | 5.45 | 37.9 | 181 |  |  |  | 0.0296 | 0.317 | 2.19
H-Y[Aib]QGT[αMePhe(2-F)]TSDYSILLDKQAAK([AEEA-AEEA-γGlu-C20 diacid])EFIEYLIEGGPSSGEPPPSEG-NH2 [Example 348] | 36.4 | 136 | 1250 | 0.127 | 0.346 | 3.9 |  |  | 

Source: patent publication US20240270821A1, “GIP/GLP1/GCG TRI-RECEPTOR AGONISTS AND USES THEREOF” (priority 2023, published 2024)
